EC50 data for two compounds are collected here from US20240270821A1, “GIP/GLP1/GCG TRI-RECEPTOR AGONISTS AND USES THEREOF” (priority 2023, published 2024).

The structures appear in SMILES notation. Starred links: 1 amine or outer side, 2 acyl side, 3 side chain; linkers in the order of their positions; H or OH if unused. Non-standard residues stand in square brackets, D forms with d. Residues, ends and D or L forms follow the SMILES beside them. Groups on a side chain read outwards from the residue. *: point of attachment. C18 diacid = O=C(O)CCCCCCCCCCCCCCCCC(=O)*; αMePhe(2-F) = C[C@](N)(Cc1ccccc1F)C(=O)O; γGlu = O=C(O)[C@H](CCC(=O)[*:2])N[*:1]; αMeY = C[C@](N)(Cc1ccc(O)cc1)C(=O)O; 4Pal = N[C@@H](Cc1ccncc1)C(=O)O; αMeL = CC(C)C[C@](C)(N)C(=O)O; αMeS = C[C@](N)(CO)C(=O)O; Orn = NCCC[C@H](N)C(=O)O; Aib = CC(C)(N)C(=O)O

Common to all, as to type: cell-based
The target of assay [1] is T1, hGLP-1R (Homo sapiens, UniProt P43220). In words: Functional cAMP activation in the presence of 0.1% casein (no HSA). As to conditions: read-out: Relative cAMP EC50, hGLP-1R.
T1 sequence (P43220 24-463): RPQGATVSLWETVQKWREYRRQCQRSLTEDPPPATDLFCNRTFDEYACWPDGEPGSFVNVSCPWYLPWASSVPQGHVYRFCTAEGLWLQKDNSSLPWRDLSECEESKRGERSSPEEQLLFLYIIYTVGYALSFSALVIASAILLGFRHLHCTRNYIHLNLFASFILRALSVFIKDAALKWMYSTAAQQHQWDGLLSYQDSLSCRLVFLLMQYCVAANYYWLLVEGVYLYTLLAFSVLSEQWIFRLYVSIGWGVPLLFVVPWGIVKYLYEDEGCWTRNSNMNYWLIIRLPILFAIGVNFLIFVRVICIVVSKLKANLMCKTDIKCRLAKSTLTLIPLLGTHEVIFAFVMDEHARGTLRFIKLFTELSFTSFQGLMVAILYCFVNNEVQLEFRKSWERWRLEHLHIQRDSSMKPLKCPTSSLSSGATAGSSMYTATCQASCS
The target of the next assay is hGcgR (Homo sapiens, UniProt P47871). The description is as above. As to conditions: read-out: Relative cAMP EC50, hGcgR.
Sequence of hGcgR (P47871 26-477): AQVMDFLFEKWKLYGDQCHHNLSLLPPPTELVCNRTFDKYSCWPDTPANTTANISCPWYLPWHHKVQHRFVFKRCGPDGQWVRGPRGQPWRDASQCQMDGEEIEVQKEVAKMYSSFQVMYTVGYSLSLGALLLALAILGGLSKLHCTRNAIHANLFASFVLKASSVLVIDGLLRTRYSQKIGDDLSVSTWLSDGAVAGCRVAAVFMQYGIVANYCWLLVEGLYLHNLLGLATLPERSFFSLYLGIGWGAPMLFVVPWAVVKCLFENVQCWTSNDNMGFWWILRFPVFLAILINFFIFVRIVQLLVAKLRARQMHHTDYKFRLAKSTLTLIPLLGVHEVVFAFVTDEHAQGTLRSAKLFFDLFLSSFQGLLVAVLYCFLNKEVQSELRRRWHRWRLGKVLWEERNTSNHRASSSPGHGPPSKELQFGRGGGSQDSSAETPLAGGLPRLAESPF
For another assay, the target named is human GcgR (Homo sapiens, UniProt P47871). The experiment in a line: Functional cAMP activity in the presence of 1% HSA. To be noted: read-out: cAMP Rel EC50, hGcgR.
Sequence of human GcgR (P47871 26-477): as above
The target of assay [2] is T1, hGLP-1R. In words: Functional cAMP activity in the presence of 1% HSA. To be noted: read-out: cAMP Rel EC50, hGLP-1R.
The target of assay [3] is T2, hGIPR (Homo sapiens, UniProt P48546).
T2 sequence (P48546 22-466): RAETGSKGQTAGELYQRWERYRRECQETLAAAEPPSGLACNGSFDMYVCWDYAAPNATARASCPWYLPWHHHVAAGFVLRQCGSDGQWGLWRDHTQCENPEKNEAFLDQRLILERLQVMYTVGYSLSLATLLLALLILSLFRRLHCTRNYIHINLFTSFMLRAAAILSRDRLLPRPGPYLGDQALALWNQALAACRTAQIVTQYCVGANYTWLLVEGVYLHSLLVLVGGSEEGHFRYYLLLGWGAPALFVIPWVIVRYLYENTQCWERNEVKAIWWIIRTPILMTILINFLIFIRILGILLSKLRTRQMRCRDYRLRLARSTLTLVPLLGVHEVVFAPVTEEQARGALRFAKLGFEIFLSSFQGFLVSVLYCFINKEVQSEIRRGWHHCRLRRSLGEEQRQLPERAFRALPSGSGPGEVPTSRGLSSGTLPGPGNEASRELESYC
In words: Functional cAMP activity in the presence of 1% HSA. As to conditions: read-out: cAMP Rel EC50, hGIPR.

Assay [4] deals with T2, hGIPR. The experiment in a line: Functional cAMP activation in the presence of 0.1% casein (no HSA). To be noted: read-out: Relative cAMP EC50, hGIPR.
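Throughout, for Relative cAMP EC50, hGIPR: intracellular cAMP rise after 30 min at 37 °C read by HTRF against a standard curve, scaled between buffer alone (0%) and top control ligand concentration (100%), four-parameter fit.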
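Throughout, for Relative cAMP EC50, hGLP-1R: intracellular cAMP rise after 30 min at 37 °C read by HTRF, normalized between buffer only (0%) and maximal control ligand (100%), four-parameter variable-slope fit.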
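Throughout, for Relative cAMP EC50, hGcgR: intracellular cAMP rise after 30 min at 37 °C, read by HTRF against a cAMP standard curve, scaled from buffer only (0%) to maximal control ligand response (100%).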

For the compound `CC[C@H](C)[C@H](NC(=O)[C@H](Cc1ccccc1)NC(=O)[C@H](CCCN)NC(=O)C(C)(C)NC(=O)[C@H](CCC(N)=O)NC(=O)[C@H](C)NC(=O)[C@H](CCCCNC(=O)CC[C@H](NC(=O)CC[C@H](NC(=O)CCCCCCCCCCCCCCCCC(=O)O)C(=O)O)C(=O)O)NC(=O)[C@H](CCCN)NC(=O)[C@H](CC(=O)O)NC(=O)[C@H](CC(C)C)NC(=O)[C@](C)(CC(C)C)NC(=O)[C@@H](NC(=O)[C@](C)(CO)NC(=O)[C@H](Cc1ccncc1)NC(=O)[C@H](CC(=O)O)NC(=O)[C@H](CO)NC(=O)[C@@H](NC(=O)[C@](C)(Cc1ccccc1F)NC(=O)[C@@H](NC(=O)CNC(=O)[C@H](CCC(N)=O)NC(=O)C(C)(C)NC(=O)[C@@H](N)Cc1ccc(O)cc1)[C@@H](C)O)[C@@H](C)O)[C@@H](C)CC)C(=O)N[C@H](CCC(=O)O)C(=O)N[C@@](C)(Cc1ccc(O)cc1)C(=O)N[C@@H](CC(C)C)C(=O)N[C@@H](CO)C(=O)N[C@@H](CCC(=O)O)C(=O)NCC(=O)NCC(=O)N1CCC[C@H]1C(=O)N[C@@H](CO)C(=O)N[C@@H](CO)C(=O)NCC(=O)N[C@@H](CCC(=O)O)C(=O)N1CCC[C@H]1C(=O)N1CCC[C@H]1C(=O)N1CCC[C@H]1C(=O)N[C@@H](CCC(=O)O)C(N)=O` [Example 438] (H-Y[Aib]QGT[αMePhe(2-F)]TSD[4Pal][αMeS]I[αMeL]LD[Orn]K([γGlu-γGlu-C18 diacid])AQ[Aib][Orn]FI[dE][αMeY]LSEGGPSSGEPPPE-NH2), the half-maximal effective concentration (EC50) on hGLP-1R [1] turned out to be 0.815 nM; at hGcgR it was 3.62 nM; on human GcgR, 431 nM; on hGLP-1R [2] it was 41.1 nM; at hGIPR [3] it was 53.8 nM; at hGIPR [4] it was 0.225 nM.
Turning to `CC[C@H](C)[C@H](NC(=O)[C@H](Cc1ccccc1)NC(=O)[C@H](CCCN)NC(=O)C(C)(C)NC(=O)[C@H](CCC(N)=O)NC(=O)[C@H](C)NC(=O)[C@H](CCCCNC(=O)CC[C@H](NC(=O)CC[C@H](NC(=O)CCCCCCCCCCCCCCCCC(=O)O)C(=O)O)C(=O)O)NC(=O)[C@H](CCCN)NC(=O)[C@H](CC(=O)O)NC(=O)[C@H](CC(C)C)NC(=O)[C@](C)(CC(C)C)NC(=O)[C@@H](NC(=O)[C@](C)(CO)NC(=O)[C@H](Cc1ccncc1)NC(=O)[C@H](CC(=O)O)NC(=O)[C@H](CO)NC(=O)[C@@H](NC(=O)[C@](C)(Cc1ccccc1F)NC(=O)[C@@H](NC(=O)CNC(=O)[C@H](CCC(N)=O)NC(=O)C(C)(C)NC(=O)[C@@H](N)Cc1ccc(O)cc1)[C@@H](C)O)[C@@H](C)O)[C@@H](C)CC)C(=O)N[C@H](CCC(=O)O)C(=O)N[C@@](C)(Cc1ccc(O)cc1)C(=O)N[C@@H](CC(C)C)C(=O)N[C@@H](CCC(N)=O)C(=O)N[C@@H](CCC(=O)O)C(=O)NCC(=O)NCC(=O)N1CCC[C@H]1C(=O)N[C@@H](CO)C(=O)N[C@@H](CO)C(=O)NCC(=O)N[C@@H](CCC(=O)O)C(=O)N1CCC[C@H]1C(=O)N1CCC[C@H]1C(=O)N1CCC[C@H]1C(=O)N[C@@H](CCC(=O)O)C(N)=O` [Example 439] (H-Y[Aib]QGT[αMePhe(2-F)]TSD[4Pal][αMeS]I[αMeL]LD[Orn]K([γGlu-γGlu-C18 diacid])AQ[Aib][Orn]FI[dE][αMeY]LQEGGPSSGEPPPE-NH2), the EC50 was 0.293 nM at hGLP-1R [1]; 4.38 nM at hGcgR; 165 nM on human GcgR; 15.1 nM at hGLP-1R [2]; 14.6 nM on hGIPR [3]; 0.0634 nM on hGIPR [4].

For orientation: EC50 means the midpoint of the concentration-response curve.
